US10028992B2, “Methods of treating muscular dystrophy” (BOARD OF REGENTS OF THE NEVADA SYSTEM OF HIGHER EDUCATION …, priority 2012, dated 2018)

Tested on: α7 integrin promoter
Experiment: muscle cell-based assay: α7βgal+/− myoblasts/myotubes, LacZ reporter, β-galactosidase cleavage of FDG
Parameters: species or system mouse; Results in α7+/− β-galactosidase assay: scale not given here
Details: Myoblasts
Outline: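 Primary α7βgal+/− mouse myoblasts (LacZ knocked into α7 integrin exon 1, promoter retained), differentiated; promoter activity read as β-galactosidase conversion of non-fluorescent FDG to fluorescein. Hits followed by dose-response, western analysis and myostatin counterscreen.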

Q: `COC(=O)c1ccc(/N=N/c2ccccc2)cc1` [drawing 613] was tested. Which “Results in α7+/− β-galactosidase assay” value (0.5 uM) did it give?
A: The value was 0.1047.

Q: What about the “Results in α7+/− β-galactosidase assay” value (1 uM) of the same compound?
A: The value was 0.17.

Q: And the “Results in α7+/− β-galactosidase assay” value (5 uM)?
A: Its value is −0.07402.

Q: What about the “Results in α7+/− β-galactosidase assay” value (10 uM) of the same compound?
A: Its value is −0.1217.

Q: What about the “Results in α7+/− β-galactosidase assay” value (20 uM) of the same compound?
A: The value was −0.1237.

Q: What about the “Results in α7+/− β-galactosidase assay” value (40 uM) of the same compound?
A: The value was −0.2361.

Q: Which results are given for `CN(CCC1CCCCO1)C(=O)CCc1nnc(CCCCc2ccccc2)o1` (stereo not drawn) [drawing 615]?
A: Results in α7+/− β-galactosidase assay (0.5 uM): −0.05982; Results in α7+/− β-galactosidase assay (1 uM): −0.07538; Results in α7+/− β-galactosidase assay (5 uM): −0.00182; Results in α7+/− β-galactosidase assay (10 uM): −0.02349; Results in α7+/− β-galactosidase assay (20 uM): 0.02509; Results in α7+/− β-galactosidase assay (40 uM): −0.00588

Q: Which results are given for `c1ccc(-c2nn[nH]n2)nc1` [drawing 616]?
A: Results in α7+/− β-galactosidase assay (0.5 uM): −0.1138; Results in α7+/− β-galactosidase assay (1 uM): −0.161; Results in α7+/− β-galactosidase assay (5 uM): 0.4758; Results in α7+/− β-galactosidase assay (10 uM): −0.06661; Results in α7+/− β-galactosidase assay (20 uM): 0.6134; Results in α7+/− β-galactosidase assay (40 uM): −0.02456

Q: What does the source list for `O=C(N/N=C/c1c[nH]c2ccccc12)c1cc(Cl)ccc1O` [drawing 617]?
A: Results in α7+/− β-galactosidase assay (0.5 uM): −0.1174; Results in α7+/− β-galactosidase assay (1 uM): −0.2374; Results in α7+/− β-galactosidase assay (5 uM): 0.2235; Results in α7+/− β-galactosidase assay (10 uM): −0.05174; Results in α7+/− β-galactosidase assay (20 uM): −0.06378; Results in α7+/− β-galactosidase assay (40 uM): −0.0655

Q: With `O=C(O)C(Cc1ccc(O)cc1)N1C(=O)c2ccccc2C1=O` (stereo not drawn) [drawing 619] as the compound, how does the “Results in α7+/− β-galactosidase assay” value (0.5 uM) read?
A: The value was 0.1486.

Q: And the “Results in α7+/− β-galactosidase assay” value (1 uM)?
A: The value was 0.2007.

Q: What about the “Results in α7+/− β-galactosidase assay” value (5 uM) of the same compound?
A: Its value is 0.1591.

Q: What about the “Results in α7+/− β-galactosidase assay” value (10 uM) of the same compound?
A: Its value is −0.04895.

Q: And the “Results in α7+/− β-galactosidase assay” value (20 uM)?
A: Its value is 0.03548.

Q: What about the “Results in α7+/− β-galactosidase assay” value (40 uM) of the same compound?
A: Its value is 0.007087.

Q: Which “Results in α7+/− β-galactosidase assay” value (0.5 uM) does the source give for `CCN(CC)C(=O)c1sc2nc(-c3ccc(OC)cc3)cn2c1C` [drawing 620] here?
A: Its value is −0.00349.

Q: And the “Results in α7+/− β-galactosidase assay” value (1 uM)?
A: The value was −0.01981.

Q: What about the “Results in α7+/− β-galactosidase assay” value (5 uM) of the same compound?
A: The value was −0.06604.

Q: And the “Results in α7+/− β-galactosidase assay” value (10 uM)?
A: Its value is −0.2175.

Q: What about the “Results in α7+/− β-galactosidase assay” value (20 uM) of the same compound?
A: The value was −0.4369.

Q: What about the “Results in α7+/− β-galactosidase assay” value (40 uM) of the same compound?
A: Its value is −0.6089.

Q: `Cc1ccsc1-c1nnc(S)n1C1CCCCC1` [drawing 621] was tested. Which “Results in α7+/− β-galactosidase assay” value (0.5 uM) did it give?
A: Its value is 0.007736.

Q: And the “Results in α7+/− β-galactosidase assay” value (1 uM)?
A: The value was 0.002953.

Q: And the “Results in α7+/− β-galactosidase assay” value (5 uM)?
A: Its value is 0.06001.

Q: What about the “Results in α7+/− β-galactosidase assay” value (10 uM) of the same compound?
A: The value was −0.06828.

Q: And the “Results in α7+/− β-galactosidase assay” value (20 uM)?
A: The value was −0.1538.

Q: And the “Results in α7+/− β-galactosidase assay” value (40 uM)?
A: Its value is −0.1034.

Q: `O=C(N[C@@H](Cc1c[nH]c2ccccc12)C(=O)O)C1CCN(S(=O)(=O)c2cccs2)CC1` [drawing 622] was tested. Which “Results in α7+/− β-galactosidase assay” value (0.5 uM) did it give?
A: Its value is −0.07999.

Q: What about the “Results in α7+/− β-galactosidase assay” value (1 uM) of the same compound?
A: The value was −0.01966.

Q: And the “Results in α7+/− β-galactosidase assay” value (5 uM)?
A: Its value is −0.1194.

Q: What about the “Results in α7+/− β-galactosidase assay” value (10 uM) of the same compound?
A: The value was −0.09397.

Q: And the “Results in α7+/− β-galactosidase assay” value (20 uM)?
A: Its value is −0.02534.

Q: And the “Results in α7+/− β-galactosidase assay” value (40 uM)?
A: Its value is −0.04251.

Q: For `COC(=O)Cn1c(=O)c2c(nc3n2CC(C)CN3Cc2ccccc2)n(C)c1=O` (stereo not drawn) [drawing 623], which “Results in α7+/− β-galactosidase assay” value (0.5 uM) is on record?
A: Its value is −0.176.

Q: And the “Results in α7+/− β-galactosidase assay” value (1 uM)?
A: Its value is −0.2606.

Q: What about the “Results in α7+/− β-galactosidase assay” value (5 uM) of the same compound?
A: Its value is −0.02637.

Q: What about the “Results in α7+/− β-galactosidase assay” value (10 uM) of the same compound?
A: Its value is −0.1756.

Q: And the “Results in α7+/− β-galactosidase assay” value (20 uM)?
A: Its value is −0.2725.

Q: What about the “Results in α7+/− β-galactosidase assay” value (40 uM) of the same compound?
A: Its value is −0.3826.

Q: `CCOC(=O)c1cc(C(=O)OCC)c(SCc2ccccc2)nc1O` [drawing 624] was tested. Which “Results in α7+/− β-galactosidase assay” value (0.5 uM) did it give?
A: The value was −0.1519.

Q: And the “Results in α7+/− β-galactosidase assay” value (1 uM)?
A: Its value is −0.22.

Q: What about the “Results in α7+/− β-galactosidase assay” value (5 uM) of the same compound?
A: Its value is 0.001928.

Q: What about the “Results in α7+/− β-galactosidase assay” value (10 uM) of the same compound?
A: Its value is −0.1374.

Q: And the “Results in α7+/− β-galactosidase assay” value (20 uM)?
A: Its value is −0.174.

Q: What about the “Results in α7+/− β-galactosidase assay” value (40 uM) of the same compound?
A: Its value is −0.1694.

Q: How did the “Results in α7+/− β-galactosidase assay” value (0.5 uM) turn out when `Oc1nc2ccccc2nc1-c1c[nH]c2ccccc12` [drawing 625] was run?
A: The value was −0.1557.

Q: And the “Results in α7+/− β-galactosidase assay” value (1 uM)?
A: Its value is −0.2438.

Q: What about the “Results in α7+/− β-galactosidase assay” value (5 uM) of the same compound?
A: Its value is −0.1427.

Q: What about the “Results in α7+/− β-galactosidase assay” value (10 uM) of the same compound?
A: Its value is −0.1781.

Q: And the “Results in α7+/− β-galactosidase assay” value (20 uM)?
A: Its value is −0.49.

Q: What about the “Results in α7+/− β-galactosidase assay” value (40 uM) of the same compound?
A: Its value is −0.6715.

Q: `O=C(Nc1cc(-c2nc3ccccc3s2)ccc1Cl)c1ccc2c(c1)OCO2` [drawing 626] was tested. Which “Results in α7+/− β-galactosidase assay” value (0.5 uM) did it give?
A: Its value is −0.04702.

Q: And the “Results in α7+/− β-galactosidase assay” value (1 uM)?
A: The value was −0.1444.

Q: What about the “Results in α7+/− β-galactosidase assay” value (5 uM) of the same compound?
A: Its value is 0.02573.

Q: And the “Results in α7+/− β-galactosidase assay” value (10 uM)?
A: The value was 0.1301.

Q: And the “Results in α7+/− β-galactosidase assay” value (20 uM)?
A: Its value is −0.1679.

Q: And the “Results in α7+/− β-galactosidase assay” value (40 uM)?
A: The value was −0.4411.

Q: `Cn1c(-c2ccccc2)cc2ccccc21` [drawing 627] was tested. Which “Results in α7+/− β-galactosidase assay” value (0.5 uM) did it give?
A: Its value is 0.02349.

Q: And the “Results in α7+/− β-galactosidase assay” value (1 uM)?
A: The value was −0.0996.

Q: And the “Results in α7+/− β-galactosidase assay” value (5 uM)?
A: Its value is −0.05693.

Q: What about the “Results in α7+/− β-galactosidase assay” value (10 uM) of the same compound?
A: Its value is −0.02616.

Q: And the “Results in α7+/− β-galactosidase assay” value (20 uM)?
A: The value was −0.2661.

Q: And the “Results in α7+/− β-galactosidase assay” value (40 uM)?
A: The value was −0.4026.

Q: Which results are given for `COc1ccc(C(=O)/C=C2\C(=O)Nc3ccccc32)cc1OC` [drawing 628]?
A: Results in α7+/− β-galactosidase assay (0.5 uM): 0.07545; Results in α7+/− β-galactosidase assay (1 uM): −0.02919; Results in α7+/− β-galactosidase assay (5 uM): 0.1241; Results in α7+/− β-galactosidase assay (10 uM): 0.1545; Results in α7+/− β-galactosidase assay (20 uM): −0.335; Results in α7+/− β-galactosidase assay (40 uM): −0.4748

Q: For `CC(C(=O)Nc1ccc(C#N)cc1)N(C)CC(=O)Nc1cccc(F)c1` (stereo not drawn) [drawing 629], which “Results in α7+/− β-galactosidase assay” value (0.5 uM) is on record?
A: The value was −0.05058.

Q: And the “Results in α7+/− β-galactosidase assay” value (1 uM)?
A: Its value is −0.1543.

Q: And the “Results in α7+/− β-galactosidase assay” value (5 uM)?
A: The value was −0.4207.

Q: And the “Results in α7+/− β-galactosidase assay” value (10 uM)?
A: The value was −0.5078.

Q: And the “Results in α7+/− β-galactosidase assay” value (20 uM)?
A: The value was −0.8278.

Q: What about the “Results in α7+/− β-galactosidase assay” value (40 uM) of the same compound?
A: The value was −0.7653.

Q: Which results are given for `CC(C(=O)Nc1ccc(C#N)cc1)N(C)CC(=O)Nc1cccc(F)c1` (stereo not drawn) [drawing 630]?
A: Results in α7+/− β-galactosidase assay (0.5 uM): 0.01302; Results in α7+/− β-galactosidase assay (1 uM): −0.06275; Results in α7+/− β-galactosidase assay (5 uM): 0.01684; Results in α7+/− β-galactosidase assay (10 uM): 0.1242; Results in α7+/− β-galactosidase assay (20 uM): −0.01497; Results in α7+/− β-galactosidase assay (40 uM): −0.1721

Q: What does the source list for `CC1Cc2ccccc2N1C(=O)CSc1nnc(N)s1` (stereo not drawn) [drawing 631]?
A: Results in α7+/− β-galactosidase assay (0.5 uM): 0.1058; Results in α7+/− β-galactosidase assay (1 uM): −0.02327; Results in α7+/− β-galactosidase assay (5 uM): 0.003792; Results in α7+/− β-galactosidase assay (10 uM): 0.1155; Results in α7+/− β-galactosidase assay (20 uM): −0.02505; Results in α7+/− β-galactosidase assay (40 uM): −0.07326
